Measurements: PMC11990670, “Exploring the Volatility, Phase Transitions, and Solubility Properties of Five Halogenated Benzaldehydes” (Molecules, 2025)
Like-named read-outs stand apart in the source and are kept apart here.

Columns and labels:
[1] = Thermodynamic properties of sublimation and vaporization from Clarke and Glew fit of vapor pressures
From the text: The experimental crystalline and liquid vapor pressures were independently fitted by the Clarke and Glew Equation (1) in its truncated form:(1) Rlnp/p^°=−ΔcdgGm°θ/θ+ΔcdgHm°θ1/θ−1/T+ΔcdgCp,m°θθ/T−1+lnT/θ where R is the molar gas constant, p is the vapor pressure at the temperature T, p° is a selected reference pressure (p° = 10^5 Pa in this work), and θ is a reference temperature. The differences between gaseous and condensed phases of standard molar Gibbs energy, enthalpy, and the isobaric heat capacity are represented, respectively, by ΔcdgGm° , ΔcdgHm° , and ΔcdgCp,m° .
The values of ΔcdgCp,m° are generally achieved only when accurate experimental data measured over ca. 50 K are reachable. […] For comparison reasons, the values of ΔcrgCp,m° were also calculated as ΔcrgCp,m°(θ)=Cp,m°(g)−Cp,m°(cr) , where the terms Cp,m°(g) and Cp,m°(cr) are, respectively, the gas and crystalline isobaric molar heat capacities. […] The crystalline molar heat capacities, Cp,m°(cr) , were determined at different temperatures using differential scanning calorimetry, enabling the fit to second-order polynomials in temperature, represented by Equation (3) and reported in Table 3. […] The values of Cp,m°(cr,298.15 K) were derived from these equations, allowing ΔcrgCp,m°(298.15 K) to be calculated.

[2] = cited from earlier work
[3] = 20 °C, cited from earlier work
[4] = crystalline phase, θ = 298.15 K
[5] = crystalline phase, θ = 298.15 K, p° = 10^5 Pa
[6] = crystalline phase, θ = 315.46 K (mean temperature)
[7] = crystalline phase, θ = 342.99 K (triple point)
[8] = liquid phase including supercooled liquid, θ = 298.15 K
[9] = liquid phase including supercooled liquid, θ = 298.15 K, p° = 10^5 Pa
[10] = liquid phase, θ = 342.99 K (triple point)
[11] = liquid phase, θ = 358.95 K (mean temperature)
[12] = crystalline phase, θ = 303.88 K (mean temperature)
[13] = crystalline phase, θ = 330.02 K (triple point)
[14] = liquid phase, θ = 330.02 K (triple point)
[15] = liquid phase, θ = 345.37 K (mean temperature)
[16] = crystalline phase, θ = 313.72 K (mean temperature)
[17] = crystalline phase, θ = 343.90 K (triple point)
[18] = liquid phase, θ = 343.90 K (triple point)
[19] = liquid phase, θ = 350.04 K (mean temperature)
[20] = crystalline phase, θ = 307.92 K (mean temperature)
[21] = crystalline phase, θ = 334.82 K (triple point)
[22] = liquid phase, θ = 334.82 K (triple point)
[23] = liquid phase, θ = 354.31 K (mean temperature)
[24] = crystalline phase, θ = 291.18 K (mean temperature)
[25] = crystalline phase, θ = 319.43 K (triple point)
[26] = liquid phase, θ = 319.43 K (triple point)
[27] = liquid phase, θ = 331.52 K (mean temperature)

SMILES: O=Cc1c(Cl)cccc1Cl [2,6-Dichlorobenzaldehyde]
- triple point pressure ptp ([1]; Ttp = 342.99 K): 85.7 Pa
- p (Equation (1)) vapor pressure [1, 4]: 0.95 Pa
- ΔcdgGm°(θ) standard molar Gibbs energy of sublimation [1, 5]: 6.85 ± 0.0024 kcal/mol
- ΔcdgHm°(θ) standard molar enthalpy of sublimation [1, 5]: 20.5 ± 0.096 kcal/mol
- ΔcdgSm°(θ) (Equation (2)) standard molar entropy of sublimation [1, 5]: 192.0 ± 1.3 J·K^−1·mol^−1
- p (Equation (1)) vapor pressure [1, 6]: 6.35 Pa
- ΔcdgGm°(θ) standard molar Gibbs energy of sublimation [1, 6]: 6.059 ± 0.0024 kcal/mol
- ΔcdgHm°(θ) standard molar enthalpy of sublimation [1, 6]: 20.4 ± 0.024 kcal/mol
- p (Equation (1)) vapor pressure [1, 7]: 85.7 Pa
- ΔcdgGm°(θ) standard molar Gibbs energy of sublimation [1, 7]: 4.814 ± 0.0048 kcal/mol
- ΔcdgHm°(θ) standard molar enthalpy of sublimation [1, 7]: 20.2 ± 0.17 kcal/mol
- p (Equation (1)) vapor pressure [1, 8]: 2.84 Pa
- ΔcdgGm°(θ) standard molar Gibbs energy of vaporization [1, 9]: 6.202 ± 0.0239 kcal/mol
- ΔcdgHm°(θ) standard molar enthalpy of vaporization [1, 9]: 15.8 ± 0.287 kcal/mol
- ΔcdgSm°(θ) (Equation (2)) standard molar entropy of vaporization [1, 9]: 135.0 ± 4.0 J·K^−1·mol^−1
- p (Equation (1)) vapor pressure [1, 10]: 85.7 Pa
- ΔcdgGm°(θ) standard molar Gibbs energy of vaporization [1, 10]: 4.814 ± 0.0048 kcal/mol
- ΔcdgHm°(θ) standard molar enthalpy of vaporization [1, 10]: 15 ± 0.072 kcal/mol
- p (Equation (1)) vapor pressure [1, 11]: 225 Pa
- ΔcdgGm°(θ) standard molar Gibbs energy of vaporization [1, 11]: 4.348 ± 0.0024 kcal/mol
- ΔcdgHm°(θ) standard molar enthalpy of vaporization [1, 11]: 14.7 ± 0.024 kcal/mol

SMILES: O=Cc1ccc(Br)cc1 [4-Bromobenzaldehyde]
- triple point pressure ptp ([1]; Ttp = 330.02 K): 99.1 Pa
- p (Equation (1)) vapor pressure [1, 4]: 4.59 Pa
- ΔcdgGm°(θ) standard molar Gibbs energy of sublimation [1, 5]: 5.918 ± 0.0024 kcal/mol
- ΔcdgHm°(θ) standard molar enthalpy of sublimation [1, 5]: 19 ± 0.048 kcal/mol
- ΔcdgSm°(θ) (Equation (2)) standard molar entropy of sublimation [1, 5]: 183.3 ± 0.7 J·K^−1·mol^−1
- p (Equation (1)) vapor pressure [1, 12]: 8.40 Pa
- ΔcdgGm°(θ) standard molar Gibbs energy of sublimation [1, 12]: 5.667 ± 0.0024 kcal/mol
- ΔcdgHm°(θ) standard molar enthalpy of sublimation [1, 12]: 18.9 ± 0.048 kcal/mol
- p (Equation (1)) vapor pressure [1, 13]: 99.1 Pa
- ΔcdgGm°(θ) standard molar Gibbs energy of sublimation [1, 13]: 4.536 ± 0.0072 kcal/mol
- ΔcdgHm°(θ) standard molar enthalpy of sublimation [1, 13]: 18.7 ± 0.17 kcal/mol
- p (Equation (1)) vapor pressure [1, 8]: 9.57 Pa
- ΔcdgGm°(θ) standard molar Gibbs energy of vaporization [1, 9]: 5.483 ± 0.012 kcal/mol
- ΔcdgHm°(θ) standard molar enthalpy of vaporization [1, 9]: 14.6 ± 0.17 kcal/mol
- ΔcdgSm°(θ) (Equation (2)) standard molar entropy of vaporization [1, 9]: 128.3 ± 2.4 J·K^−1·mol^−1
- p (Equation (1)) vapor pressure [1, 14]: 99.1 Pa
- ΔcdgGm°(θ) standard molar Gibbs energy of vaporization [1, 14]: 4.536 ± 0.0072 kcal/mol
- ΔcdgHm°(θ) standard molar enthalpy of vaporization [1, 14]: 14 ± 0.072 kcal/mol
- p (Equation (1)) vapor pressure [1, 15]: 254 Pa
- ΔcdgGm°(θ) standard molar Gibbs energy of vaporization [1, 15]: 4.101 ± 0.0024 kcal/mol
- ΔcdgHm°(θ) standard molar enthalpy of vaporization [1, 15]: 13.7 ± 0.024 kcal/mol
- water solubility, estimated value ([2]; ALI method): 7.06 mM
- water solubility, estimated value ([2]; ESOL method): 1.68 mM
- water solubility, estimated value ([2]; SILICO-IT method): 0.634 mM

SMILES: O=Cc1ccc(Cl)cc1Cl [2,4-Dichlorobenzaldehyde]
- triple point pressure ptp ([1]; Ttp = 343.90 K): 2.01 × 10^2 Pa
- p (Equation (1)) vapor pressure [1, 4]: 2.64 Pa
- ΔcdgGm°(θ) standard molar Gibbs energy of sublimation [1, 5]: 6.245 ± 0.0024 kcal/mol
- ΔcdgHm°(θ) standard molar enthalpy of sublimation [1, 5]: 19.5 ± 0.048 kcal/mol
- ΔcdgSm°(θ) (Equation (2)) standard molar entropy of sublimation [1, 5]: 185.7 ± 0.7 J·K^−1·mol^−1
- p (Equation (1)) vapor pressure [1, 16]: 13.5 Pa
- ΔcdgGm°(θ) standard molar Gibbs energy of sublimation [1, 16]: 5.557 ± 0.0024 kcal/mol
- ΔcdgHm°(θ) standard molar enthalpy of sublimation [1, 16]: 19.4 ± 0.024 kcal/mol
- p (Equation (1)) vapor pressure [1, 17]: 201 Pa
- ΔcdgGm°(θ) standard molar Gibbs energy of sublimation [1, 17]: 4.242 ± 0.0048 kcal/mol
- ΔcdgHm°(θ) standard molar enthalpy of sublimation [1, 17]: 19.1 ± 0.12 kcal/mol
- p (Equation (1)) vapor pressure [1, 8]: 7.95 Pa
- ΔcdgGm°(θ) standard molar Gibbs energy of vaporization [1, 9]: 5.593 ± 0.012 kcal/mol
- ΔcdgHm°(θ) standard molar enthalpy of vaporization [1, 9]: 14.8 ± 0.17 kcal/mol
- ΔcdgSm°(θ) (Equation (2)) standard molar entropy of vaporization [1, 9]: 129.1 ± 2.4 J·K^−1·mol^−1
- p (Equation (1)) vapor pressure [1, 18]: 201 Pa
- ΔcdgGm°(θ) standard molar Gibbs energy of vaporization [1, 18]: 4.242 ± 0.0048 kcal/mol
- ΔcdgHm°(θ) standard molar enthalpy of vaporization [1, 18]: 14 ± 0.024 kcal/mol
- p (Equation (1)) vapor pressure [1, 19]: 289 Pa
- ΔcdgGm°(θ) standard molar Gibbs energy of vaporization [1, 19]: 4.068 ± 0.0024 kcal/mol
- ΔcdgHm°(θ) standard molar enthalpy of vaporization [1, 19]: 13.9 ± 0.024 kcal/mol

SMILES: O=Cc1cccc(Cl)c1Cl [2,3-Dichlorobenzaldehyde]
- triple point pressure ptp ([1]; Ttp = 334.82 K): 87.6 Pa
- p (Equation (1)) vapor pressure [1, 4]: 2.47 Pa
- ΔcdgGm°(θ) standard molar Gibbs energy of sublimation [1, 5]: 6.286 ± 0.0024 kcal/mol
- ΔcdgHm°(θ) standard molar enthalpy of sublimation [1, 5]: 19.4 ± 0.072 kcal/mol
- ΔcdgSm°(θ) (Equation (2)) standard molar entropy of sublimation [1, 5]: 184.1 ± 1.0 J·K^−1·mol^−1
- p (Equation (1)) vapor pressure [1, 20]: 6.98 Pa
- ΔcdgGm°(θ) standard molar Gibbs energy of sublimation [1, 20]: 5.856 ± 0.0024 kcal/mol
- ΔcdgHm°(θ) standard molar enthalpy of sublimation [1, 20]: 19.4 ± 0.048 kcal/mol
- p (Equation (1)) vapor pressure [1, 21]: 87.6 Pa
- ΔcdgGm°(θ) standard molar Gibbs energy of sublimation [1, 21]: 4.685 ± 0.0072 kcal/mol
- ΔcdgHm°(θ) standard molar enthalpy of sublimation [1, 21]: 19.2 ± 0.096 kcal/mol
- p (Equation (1)) vapor pressure [1, 8]: 5.81 Pa
- ΔcdgGm°(θ) standard molar Gibbs energy of vaporization [1, 9]: 5.779 ± 0.019 kcal/mol
- ΔcdgHm°(θ) standard molar enthalpy of vaporization [1, 9]: 15 ± 0.263 kcal/mol
- ΔcdgSm°(θ) (Equation (2)) standard molar entropy of vaporization [1, 9]: 129.2 ± 3.7 J·K^−1·mol^−1
- p (Equation (1)) vapor pressure [1, 22]: 87.6 Pa
- ΔcdgGm°(θ) standard molar Gibbs energy of vaporization [1, 22]: 4.685 ± 0.0072 kcal/mol
- ΔcdgHm°(θ) standard molar enthalpy of vaporization [1, 22]: 14.3 ± 0.096 kcal/mol
- p (Equation (1)) vapor pressure [1, 23]: 282 Pa
- ΔcdgGm°(θ) standard molar Gibbs energy of vaporization [1, 23]: 4.132 ± 0.0024 kcal/mol
- ΔcdgHm°(θ) standard molar enthalpy of vaporization [1, 23]: 14 ± 0.024 kcal/mol

SMILES: O=Cc1ccc(Cl)cc1 [4-Chlorobenzaldehyde]
- water solubility ([3]; converted from 935 mg/L): 6.652 mM
- water solubility [3]: 935 µg/mL
- triple point pressure ptp ([1]; Ttp = 319.43 K): 1.23 × 10^2 Pa
- p (Equation (1)) vapor pressure [1, 24]: 8.54 Pa
- ΔcdgGm°(θ) standard molar Gibbs energy of sublimation [1, 24]: 5.421 ± 0.0024 kcal/mol
- ΔcdgHm°(θ) standard molar enthalpy of sublimation [1, 24]: 17.6 ± 0.024 kcal/mol
- p (Equation (1)) vapor pressure [1, 4]: 17.3 Pa
- ΔcdgGm°(θ) standard molar Gibbs energy of sublimation [1, 5]: 5.131 ± 0.0024 kcal/mol
- ΔcdgHm°(θ) standard molar enthalpy of sublimation [1, 5]: 17.5 ± 0.048 kcal/mol
- ΔcdgSm°(θ) (Equation (2)) standard molar entropy of sublimation [1, 5]: 173.8 ± 0.7 J·K^−1·mol^−1
- p (Equation (1)) vapor pressure [1, 25]: 123 Pa
- ΔcdgGm°(θ) standard molar Gibbs energy of sublimation [1, 25]: 4.252 ± 0.0048 kcal/mol
- ΔcdgHm°(θ) standard molar enthalpy of sublimation [1, 25]: 17.4 ± 0.14 kcal/mol
- p (Equation (1)) vapor pressure [1, 8]: 27.3 Pa
- ΔcdgGm°(θ) standard molar Gibbs energy of vaporization [1, 9]: 4.861 ± 0.0072 kcal/mol
- ΔcdgHm°(θ) standard molar enthalpy of vaporization [1, 9]: 13.6 ± 0.14 kcal/mol
- ΔcdgSm°(θ) (Equation (2)) standard molar entropy of vaporization [1, 9]: 122.0 ± 2.0 J·K^−1·mol^−1
- p (Equation (1)) vapor pressure [1, 26]: 123 Pa
- ΔcdgGm°(θ) standard molar Gibbs energy of vaporization [1, 26]: 4.252 ± 0.0048 kcal/mol
- ΔcdgHm°(θ) standard molar enthalpy of vaporization [1, 26]: 13.2 ± 0.048 kcal/mol
- p (Equation (1)) vapor pressure [1, 27]: 262 Pa
- ΔcdgGm°(θ) standard molar Gibbs energy of vaporization [1, 27]: 3.917 ± 0.0024 kcal/mol
- ΔcdgHm°(θ) standard molar enthalpy of vaporization [1, 27]: 13 ± 0.024 kcal/mol
- water solubility, estimated value ([2]; 25 °C, converted from 1340 mg/L): 9.532 mM
- water solubility, estimated value ([2]; 25 °C): 1340 µg/mL
- water solubility, estimated value ([2]; ALI method): 8.15 mM
- water solubility, estimated value ([2]; ESOL method): 3.45 mM
- water solubility, estimated value ([2]; SILICO-IT method): 1.16 mM
